US20240246920A1, “TRIAZOLE DERIVATIVES WITH ANTIFUNGAL ACTIVITY” (King's College London, priority 2020, published 2024)
Converted amounts (≈) assume the structure as drawn. Like-named read-outs stand apart in the source and are kept apart here.

Key:
C. parapsilosis NCPF3209 = assay: microbe, parasite or virus in culture; assay type: cell-based, Candida parapsilosis; settings: Lodderomyces parapsilosis
Method: (§1) The minimum inhibitory concentration of test compounds were determined in a panel of Candida species (see Table 4 below), using the a serial dilution method in 96-well plates using the following protocol.
(§2) Starter cultures of fungal strains to be tested were grown in 3 mL of RPMI 2% glucose media incubated at 37° C. with shaking at 200 rpm overnight. The culture media used was 900 mL H2O; 10.4 g RPMI 1640 (with L-glutamine and a pH indicator but without bicarbonate); 34.5 g MOPS and 18 g glucose. The pH of the media was adjusted to 7.0 with 1 M sodium hydroxide.
(§3) Solutions of the compound to be tested were prepared by dissolving the compound in DMSO and subsequently into media to the desired concentrations. […] The last two rows of each plate were control rows containing the culture media alone and the media plus fungi.
(§4) The fungi starter cultures were diluted 1:10 in water in cuvettes. This was then further diluted to an optical density (OD600) of 0.01 in media. 100 μL of the fungi was added to each well giving a starting concentration of fungus of 0.5-5×10^5/mL. One species of fungus was used on each plate. The plates were then held at 37° C. for 24 hours.
(§5) A plate reader was used to measure growth in each well at OD530 nm and the MIC was determined for each test compound. The MIC is defined as the lowest concentration giving rise to inhibition of ≥50% of that of the drug-free control well containing the fungus and media.

C. glabrata NCPF8018 = assay: Candida panel MIC, serial dilution in 96-well plates; assay type: cell-based, Candida glabrata; settings: Nakaseomyces glabratus
Method: as §1, §2, §3, §4, §5

C. krusei NCPF3876 = assay: microbe, parasite or virus in culture; assay type: cell-based, Candida krusei; settings: Pichia kudriavzevii
Method: as §1, §2, §3, §4, §5

C. tropicalis NCPF8760 = assay: Candida panel MIC, serial dilution in 96-well plates; assay type: cell-based
Method: as §1, §2
(§6) Solutions of the compound to be tested were prepared by dissolving the compound in DMSO and subsequently into media to the desired concentrations. 200 μL of compound solution was then added to the wells of the 96-well plate using a serial dilution method row-by row of the plate to give a compound concentration gradient across the plate of from 128 μg/mL to 0.25 μg/mL. The last two rows of each plate were control rows containing the culture media alone and the media plus fungi.
as §4, §5

C. auris TDG1912 = assay: as above; assay type: cell-based; settings: Candidozyma auris, TDG1912; Table 4; 24 hours, ≥50% inhibition; read-out: MIC C. auris TDG1912
Method: as §1, §2, §6, §4, §5

C. albicans NCPF3281 = assay: as above; assay type: cell-based, Candida albicans; settings: Candida albicans, NCPF3281; Table 4, common panel; 24 hours, ≥50% inhibition; read-out: MIC C. albicans NCPF3281
Method: as §1, §2, §6, §4, §5

Candida auris TDG1102 = assay: as above; assay type: cell-based; settings: Candidozyma auris, TDG1102; Table 4, extended panel; 24 hours, ≥50% inhibition; read-out: MIC Candida auris TDG1102
Method: as §1, §2, §6, §4, §5

Candida auris TDG2512 = assay: as above; assay type: cell-based; settings: Candidozyma auris, TDG2512; Table 4, extended panel; 24 hours, ≥50% inhibition; read-out: MIC Candida auris TDG2512
Method: as §1, §2, §6, §4, §5

Candida auris TDG2506 = assay: microbe, parasite or virus in culture; assay type: cell-based; settings: Candidozyma auris
Method: as §1, §2, §3, §4, §5
(§7) The Candida auris strains shown in Table 7 were either taken from the National Collection of Pathogenic Fungi (NCPF) or collected as part of ongoing surveillance studies. The strains were characterised as follows.

Candida auris TDG2211 = assay: microbe, parasite or virus in culture; assay type: cell-based; settings: Candidozyma auris
Method: as §1, §2, §3, §4, §5, §7

C. auris 8977 = assay: Candida panel MIC, serial dilution in 96-well plates; assay type: cell-based, Candida auris
Method: as §1, §2, §3, §4, §5, §7

C. auris 8971 = assay: as above; assay type: cell-based, Candida auris
Method: as §1, §2, §3, §4, §5, §7

C. auris 8984 = assay: as above; assay type: cell-based, Candida auris
Method: as §1, §2, §3, §4, §5, §7

[1] = NCPF3209, Table 4, common panel, 24 hours, ≥50% inhibition, read-out: MIC C. parapsilosis NCPF3209
[2] = NCPF8018, Table 4, common panel, 24 hours, ≥50% inhibition, read-out: MIC C. glabrata NCPF8018
[3] = NCPF3876, Table 4, common panel, 24 hours, ≥50% inhibition, read-out: MIC C. krusei NCPF3876
[4] = NCPF8760, Table 4, common panel, 24 hours, ≥50% inhibition, read-out: MIC C. tropicalis NCPF8760
[5] = NCPF3209, read-out: MIC C. Parapsilosis NCPF3209
[6] = NCPF8018, read-out: MIC C. Glabrata NCPF8018
[7] = NCPF3876, read-out: MIC C. Krusei NCPF3876
[8] = NCPF8760, read-out: MIC C. Tropicalis NCPF8760
[9] = TDG2506, Table 4, extended panel, 24 hours, ≥50% inhibition, read-out: MIC Candida auris TDG2506
[10] = TDG2211, Table 4, extended panel, 24 hours, ≥50% inhibition, read-out: MIC Candida auris TDG2211
[11] = Candidozyma auris, 8977, Table 4, extended panel, 24 hours, ≥50% inhibition, read-out: MIC C. auris 8977
[12] = Candidozyma auris, 8971, Table 4, extended panel, 24 hours, ≥50% inhibition, read-out: MIC C. auris 8971
[13] = Candidozyma auris, 8984, Table 4, extended panel, 24 hours, ≥50% inhibition, read-out: MIC C. auris 8984
[14] = TDG2506, read-out: MIC C. auris 2506
[15] = TDG2211, read-out: MIC C. auris 2211
[16] = Candidozyma auris, 8977, read-out: MIC C. auris 8977
[17] = Candidozyma auris, 8971, read-out: MIC C. auris 8971
[18] = Candidozyma auris, 8984, read-out: MIC C. auris 8984

Row | SMILES | MIC (C. parapsilosis NCPF3209; [1]) [ng/mL] | MIC (C. glabrata NCPF8018; [2]) [µg/mL] | MIC (C. krusei NCPF3876; [3]) [µg/mL] | MIC (C. tropicalis NCPF8760; [4]) [µg/mL] | MIC (C. albicans NCPF3281) [µg/mL] | MIC (Candida auris TDG2506; [14]) [µg/mL] | MIC (Candida auris TDG2211; [15]) [ng/mL] | MIC (C. auris 8977; [16]) [ng/mL] | MIC (C. auris 8971; [17]) [ng/mL] | MIC (C. auris 8984; [18]) [µg/mL] | further results
1 | OC(CN1CCC2(CCN(Cc3ccccc3)CC2)CC1)(Cn1cncn1)c1ccc(F)cc1F (centres unmarked) [Example 1, 1-(9-Benzyl-3,9-diazaspiro[5.5]undecan-3-yl)-2-(2,4-difluorophenyl)-3-(1H-1,2,4-triazol-1-yl)propan-2-ol] | 4000 to 8000 (≈ 8.31 to 16.6 µM) | ≤ 0.125 | 1 to 2 (≈ 2.08 to 4.15 µM) | 0.25 to 1 (≈ 0.519 to 2.08 µM) | 0.5 to 1 (≈ 1.04 to 2.08 µM) |  |  |  |  |  | MIC (C. auris TDG1912): ≤ 0.125 µg/mL
2 | CC(C)COc1ccc(NC2CCN(CC(O)(Cn3cncn3)c3ccc(F)cc3F)CC2)cc1 (centres unmarked) [Example 84] | 0.98 to 1.95 (≈ 0.00202 to 0.00402 µM) | 0.06 (≈ 0.124 µM) | 0.03 (≈ 0.0618 µM) | 0.125 (≈ 0.257 µM) | 0.00195 (≈ 0.00402 µM) |  |  |  |  |  | MIC (C. parapsilosis NCPF3209; [5]): 0.98 to 1.95 ng/mL (≈ 0.00202 to 0.00402 µM); MIC (C. glabrata NCPF8018; [6]): 0.06 µg/mL (≈ 0.124 µM); MIC (C. krusei NCPF3876; [7]): 0.03 µg/mL (≈ 0.0618 µM); MIC (C. tropicalis NCPF8760; [8]): 0.125 µg/mL (≈ 0.257 µM); MIC (Candida auris TDG1102): 0.0156 µg/mL (≈ 0.0321 µM); MIC (Candida auris TDG2512): 1.95 to 3.91 ng/mL (≈ 0.00402 to 0.00805 µM); MIC (Candida auris TDG2506; [9]): 0.03 µg/mL (≈ 0.0618 µM); MIC (Candida auris TDG2211; [10]): 0.98 to 1.95 ng/mL (≈ 0.00202 to 0.00402 µM); MIC (C. auris 8977; [11]): 3.91 ng/mL (≈ 0.00805 µM); MIC (C. auris 8971; [12]): 1.95 to 3.91 ng/mL (≈ 0.00402 to 0.00805 µM); MIC (C. auris 8984; [13]): 0.03 µg/mL (≈ 0.0618 µM)
3 | OC(CN1CCC(Nc2ccc(OCc3ccccc3)cc2)CC1)(Cn1cncn1)c1ccc(F)cc1F (centres unmarked) [Compound number 90, 1-(4-((4-(benzyloxy)phenyl)amino)piperidin-1-yl)-2-(2,4-difluorophenyl)-3-(1H-1,2,4-triazol-1-yl)propan-2-ol] |  |  |  |  |  | ≤ 0.003 | ≤ 3 | ≤ 3 | ≤ 3 | ≤ 0.003 | 
4 | OC(CN1CCC2(CCC(Nc3ccc(Cc4ccccc4)cc3)CC2)C1)(Cn1cncn1)c1ccc(F)cc1F (centres unmarked) [Compound number 13, 1-(8-((4-benzylphenyl)amino)-2-azaspiro[4.5]decan-2-yl)-2-(2,4-difluorophenyl)-3-(1H-1,2,4-triazol-1-yl)propan-2-ol] |  |  |  |  |  | ≤ 0.125 | ≤ 125 | ≤ 125 | ≤ 125 | ≤ 0.003 | 
5 | OC(CN1CCC(N2CCC(Nc3ccc(Cc4ccccc4)cc3)CC2)CC1)(Cn1cncn1)c1ccc(F)cc1F (centres unmarked) [Compound number 12, 1-(4-((4-benzylphenyl)amino)-[1,4′-bipiperidin]-1′-yl)-2-(2,4-difluorophenyl)-3-(1H-1,2,4-triazol-1-yl)propan-2-ol] |  |  |  |  |  | ≤ 0.125 | ≤ 125 | ≤ 125 | ≤ 125 | ≤ 0.125 | 
6 | OC(CN1CCCCN(c2cnccn2)CC1)(Cn1cncn1)c1ccc(F)cc1F (centres unmarked) [Example 17, 2-(2,4-Difluorophenyl)-1-(4-(pyrazin-2-yl)-1,4-diazocan-1-yl)-3-(1H-1,2,4-triazol-1-yl)propan-2-ol] | ≤ 125 | 0.12 (≈ 0.279 µM) | 4 (≈ 9.31 µM) | 4 to 8 (≈ 9.31 to 18.6 µM) | ≤ 0.125 |  |  |  |  |  | MIC (C. auris TDG1912): 4 to 16 µg/mL (≈ 9.31 to 37.3 µM)
7 | COc1ccc(Oc2ccc(NC3CCN(CC(O)(Cn4cncn4)c4ccc(F)cc4F)CC3)cc2)cc1 (centres unmarked) [Example 86] | 0.98 to 7.8 (≈ 0.00183 to 0.0146 µM) | 0.5 (≈ 0.934 µM) | 0.015 to 0.125 (≈ 0.028 to 0.233 µM) | 0.125 (≈ 0.233 µM) | 0.0078 to 0.0156 (≈ 0.0146 to 0.0291 µM) |  |  |  |  |  | MIC (C. parapsilosis NCPF3209; [5]): 0.98 to 7.8 ng/mL (≈ 0.00183 to 0.0146 µM); MIC (C. glabrata NCPF8018; [6]): 0.5 µg/mL (≈ 0.934 µM); MIC (C. krusei NCPF3876; [7]): 0.015 to 0.125 µg/mL (≈ 0.028 to 0.233 µM); MIC (C. tropicalis NCPF8760; [8]): 0.125 µg/mL (≈ 0.233 µM); MIC (Candida auris TDG1102): 0.015 to 0.0625 µg/mL (≈ 0.028 to 0.117 µM); MIC (Candida auris TDG2512): 7.8 ng/mL (≈ 0.0146 µM); MIC (Candida auris TDG2506; [9]): 0.0625 µg/mL (≈ 0.117 µM); MIC (Candida auris TDG2211; [10]): 7.8 ng/mL (≈ 0.0146 µM); MIC (C. auris 8977; [11]): 0.98 to 3.9 ng/mL (≈ 0.00183 to 0.00728 µM); MIC (C. auris 8971; [12]): 0.98 to 30 ng/mL (≈ 0.00183 to 0.056 µM); MIC (C. auris 8984; [13]): 0.0078 to 0.125 µg/mL (≈ 0.0146 to 0.233 µM)
